Measured values published in the supplement of paper PMC10307832.

How the values were obtained:
Test in all cases: relative viability (nuclei count vs DMSO), 5 days (fraction); higher = more cells survive
Salubrinal + Alpelisib = compound: O=C(/C=C/c1ccccc1)NC(NC(=S)Nc1cccc2cccnc12)C(Cl)(Cl)Cl [Salubrinal] + Cc1nc(NC(=O)N2CCC[C@H]2C(N)=O)sc1-c1ccnc(C(C)(C)C(F)(F)F)c1 [Alpelisib] (partner 2 µM)
How it was run: (§1)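 Lung cancer cell lines were pin-tool dosed in 1536-well plates on the day after seeding, with either a lone drug or a fixed anchor-drug dose plus five library-drug doses (not always all listed) in √10 steps. Nuclei were counted on 4× images after 5 days. Relative viability is the ratio of treated-well to vehicle-well nuclei counts, with each value a median of duplicate plates.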

[1] = compound: Cc1ccc2nc(NCCN)c3ncc(C)n3c2c1 + N=C(N)NC(=N)NCCc1ccccc1 [Phenformin] (partner 250 µM)
How it was run: as §1

[2] = compound: Cc1ccc2nc(NCCN)c3ncc(C)n3c2c1 + CC1(C)CCC(c2ccc(Cl)cc2)=C(CN2CCN(c3ccc(C(=O)NS(=O)(=O)c4ccc(N[C@H](CCN5CCOCC5)CSc5ccccc5)c(S(=O)(=O)C(F)(F)F)c4)cc3)CC2)C1 [Navitoclax] (partner 0.5 µM)
How it was run: as §1

Salubrinal + Luminespib = compound: O=C(/C=C/c1ccccc1)NC(NC(=S)Nc1cccc2cccnc12)C(Cl)(Cl)Cl [Salubrinal] + CCNC(=O)c1noc(-c2cc(C(C)C)c(O)cc2O)c1-c1ccc(CN2CCOCC2)cc1 [Luminespib] (partner 0.01 µM)
How it was run: as §1

Cell Line | relative viability (Salubrinal + Alpelisib; first compound 0.08 µM) | relative viability (Salubrinal + Alpelisib; first compound 0.253 µM) | relative viability (Salubrinal + Alpelisib; first compound 0.8 µM) | relative viability (Salubrinal + Alpelisib; first compound 2.53 µM) | relative viability (Salubrinal + Alpelisib; first compound 8 µM) | relative viability ([1]; first compound 0.04 µM) | relative viability ([1]; first compound 0.1265 µM) | relative viability ([1]; first compound 0.4 µM) | relative viability ([1]; first compound 1.265 µM) | relative viability ([1]; first compound 4 µM) | relative viability ([2]; first compound 0.04 µM) | relative viability ([2]; first compound 0.1265 µM) | relative viability ([2]; first compound 0.4 µM) | relative viability ([2]; first compound 1.265 µM) | relative viability ([2]; first compound 4 µM) | relative viability (Salubrinal + Luminespib; first compound 0.08 µM) | relative viability (Salubrinal + Luminespib; first compound 0.253 µM) | relative viability (Salubrinal + Luminespib; first compound 0.8 µM) | relative viability (Salubrinal + Luminespib; first compound 2.53 µM) | relative viability (Salubrinal + Luminespib; first compound 8 µM)
HCC-78 | 0.345 | 0.377 | 0.349 | 0.307 | 0.316 | 0.81 | 0.694 | 0.71 | 0.697 | 0.601 | 0.919 | 0.8 | 0.778 | 0.757 | 0.689 | – | – | – | – | –
HCC-366 | 0.609 | 0.361 | 0.426 | 0.472 | 0.326 | 0.588 | 0.609 | 0.638 | 0.606 | 0.537 | 1.26 | 1.07 | 1.03 | 0.997 | 1.02 | – | – | – | – | –
HCC-827 | 0.995 | 1.07 | 0.954 | 0.985 | 0.963 | 0.409 | 0.402 | 0.401 | 0.39 | 0.384 | 1.03 | 0.969 | 1.03 | 1.05 | 0.984 | 0.694 | 0.411 | 0.425 | 0.739 | 0.551
HOP-62 | 0.861 | 1.26 | 0.95 | 1.03 | 1.21 | 0.676 | 0.643 | 0.575 | 0.657 | 0.653 | 0.956 | 1.05 | 0.859 | 1 | 0.954 | 0.936 | 0.676 | 0.968 | 0.882 | 0.861
IA-LM | 0.828 | 0.906 | 0.885 | 0.66 | 0.747 | – | – | – | – | – | 0.792 | 0.779 | 0.707 | 0.623 | 0.587 | – | – | – | – | –
LC-2-ad | 1.01 | 0.784 | 0.92 | 0.881 | 0.831 | 0.637 | 0.546 | 0.55 | 0.547 | 0.44 | 0.404 | 0.431 | 0.491 | 0.526 | 0.508 | 1.06 | 1.13 | 1.05 | 0.979 | 0.98
LCLC-97TM1 | 0.258 | 0.302 | 0.254 | – | 0.276 | 0.38 | 0.427 | 0.435 | 0.465 | 0.435 | 0.57 | 0.444 | 0.39 | 0.392 | 0.487 | 0.894 | 0.798 | 0.823 | 0.849 | 0.842
LCLC-103H | 0.953 | 0.917 | 1.05 | 1.02 | 0.932 | 0.342 | 0.349 | 0.332 | 0.365 | 0.348 | – | – | – | – | – | 1.11 | 0.82 | 1.02 | 1.04 | 0.916
LK-2 | 1.33 | 1.07 | 1.23 | 1.19 | 1.08 | 0.358 | 0.559 | 0.307 | 0.325 | 0.415 | 0.831 | 0.65 | 0.886 | 0.77 | 0.789 | 0.219 | 0.183 | 0.214 | 0.211 | 0.166
LOU-NH91 | 0.781 | 0.692 | 0.72 | 0.749 | 0.697 | 0.729 | 0.693 | 0.756 | 0.654 | 0.664 | 0.684 | 0.687 | 0.724 | 0.672 | 0.65 | 0.304 | 0.381 | 0.358 | 0.305 | 0.386
NCI-H358 | 1.03 | 0.676 | 0.886 | 0.792 | 0.675 | 0.391 | 0.313 | 0.323 | 0.359 | 0.402 | – | – | – | – | – | 0.277 | – | 0.553 | 0.478 | 0.38
NCI-H522 | – | – | – | – | – | 0.695 | 0.708 | 0.622 | 0.689 | 0.543 | – | – | – | – | – | 1.13 | 0.97 | 1.13 | 1.12 | 1.11
NCI-H650 | 1.29 | 1.14 | 1.14 | 1.11 | 1.04 | 0.462 | 0.476 | 0.437 | 0.441 | 0.425 | – | – | – | – | – | 0.753 | 0.791 | 0.845 | 0.786 | 0.767
NCI-H661 | 0.572 | 0.864 | 0.937 | 0.845 | 0.686 | 0.26 | 0.375 | 0.254 | 0.293 | 0.308 | – | – | – | – | – | 0.912 | 0.763 | 0.919 | 0.905 | 0.941
NCI-H1299 | 1.04 | 1.03 | 1.05 | 1.15 | 0.982 | – | – | – | – | – | 1.02 | 1.04 | 1.06 | 1.02 | 0.898 | – | – | – | – | –
NCI-H1563 | 0.882 | 0.939 | 1.1 | 0.925 | 0.878 | 0.652 | 0.684 | 0.662 | 0.65 | 0.654 | – | – | – | – | – | 0.572 | 0.501 | 0.521 | 0.488 | 0.506
NCI-H1623 | – | – | – | – | – | 0.586 | 0.618 | 0.657 | 0.684 | 0.567 | – | – | – | – | – | 0.465 | 0.648 | 0.541 | 0.435 | 0.441
NCI-H1650 | – | – | – | – | – | 0.442 | 0.488 | 0.455 | 0.414 | 0.464 | 1.3 | 1 | 1.12 | 1.25 | 0.934 | 0.212 | 0.213 | 0.194 | 0.19 | 0.216
NCI-H1703 | 0.394 | 0.359 | 0.324 | 0.365 | 0.374 | – | – | – | – | – | 1.3 | 0.881 | 1 | 1.18 | 0.707 | – | – | – | – | –
NCI-H2342 | – | – | – | – | – | 0.592 | 0.816 | 0.636 | 0.581 | 0.559 | – | – | – | – | – | 0.779 | 0.662 | 0.714 | 0.601 | 0.799
SW 900 | – | – | – | – | – | 0.594 | 0.6 | – | 0.674 | 0.849 | – | – | – | – | – | 0.173 | – | 0.175 | 0.189 | 0.207
